Experimental data published in patent publication US9115134B2, “6-triazolopyridazine sulfanyl benzothiazole derivatives as MET inhibitors” (SANOFI, priority 2007, dated 2015).

Tests used:
[1] = system: HCT116 cells, MKN45 cells; experiment: Test C: Measurement of cell proliferation by 14C-thymidine pulse; format: cell-based; details: 14C-thymidine incorporation, 96 h of treatment; cell line not given
Method: (§1) Stop the reaction with 100 μl of stop solution. Read without delay at […], 0.1 second on Wallac Victor plate reader. • C) Test C: Measurement of cell proliferation by ^14c-thymidine pulse
The cells are seeded into Cytostar 96-well plates in 180 μl for 4 hours at 37° C. and 5% CO2: HCT116 cells at a rate of 2500 cells per well in DMEM medium+10% foetal calf serum+1% L-glutamine and MKN45 cells at a rate of 7500 cells per well in RPMI medium+10% foetal calf serum+1% L-glutamine. After these 4 hours of incubation, the products are added in 10 μl as a 20-fold concentrated solution according to the dilution method mentioned for the ELISA. The products are tested at 10 concentrations in duplicate from 10 000 nM to 0.3 nM with an increment of 3.
After treatment for 72 h, add 10 μl of ^14C-thymidine at 10 μCi/ml to obtain 0.1 μCi per well. The ^14C-thymidine incorporation is measured on a Micro-Beta machine (Perkin-Elmer) after 24 hours of pulse and 96 h of treatment.
All the steps of the assay are automated on BIOMEK 2000 or TECAN stations.

MET [2] = molecular target: T1, MET (Homo sapiens, UniProt P08581); experiment: Test B: Inhibition of the autophosphorylation of MET; ELISA technique (pppY1230,1234,1235) in MKN45 cells; format: cell-based; set-up: Seed MKN45 cells into 96-well plates (Cell coat BD polylysine) at 20 000 cells/well; endogenous in cells; host or cells: MKN45 cells; details: 1 h treatment, PhosphoMET ELISA
Method: Leave to adhere for 24 hours in an incubator.
The cells are treated the day after seeding with the products at 6 concentrations in duplicate for 1 h. At least 3 control wells are treated with the same final amount of DMSO.
Product dilution: Stock at 10 mM in pure DMSO—range from 10 mM to 30 μM with an increment of 3 in pure DMSO—intermediate 1/50 dilutions in culture medium and then removal of 10 μl added directly to the cells (200 μl): final range of 10 000 to 30 nM.
At the end of the incubation, carefully remove the supernatant and rinse with 200 μl of PBS. Next, place 100 μl of lysis buffer directly in the wells on ice and incubate at 4° C. for 30 minutes. Lysis buffer: 10 mM Tris HCl, pH7.4, 100 mM NaCl, 1 mM EDTA, 1 mM EGTA, 1% Triton X-100, 10% glycerol, 0.1% SDS, 0.5% deoxycholate, 20 mM NaF, 2 mM Na3VO4, 1 mM PMSF and cocktail of antiproteases.
The 100 μl of lysates are transferred into a V-bottomed polypropylene plate and the ELISA is performed immediately, or the plate is frozen at −80° C. • b) PhosphoMET ELISA BioSource Kit KH00281
Into each well of the kit plate, add 70 μl of kit dilution buffer+30 μL of cell lysate or 30 μl of lysis buffer for the blanks. Incubate for 2 h with gentle agitation at ambient temperature.
Rinse the wells 4 times with 400 μl of kit washing buffer. Incubate with 100 μl of anti-phospho MET antibody for 1 hour at ambient temperature.
Rinse the wells 4 times with 400 μl of kit washing buffer. Incubate with 100 μl of anti-rabbit HRP antibody for 30 minutes at ambient temperature (except for the wells of chromogen alone).
Rinse the wells 4 times with 400 μl of kit washing buffer. Introduce 100 μL of chromogen and incubate for 30 minutes in the dark at ambient temperature.
as §1
Target sequence in this assay (P08581 25-1390): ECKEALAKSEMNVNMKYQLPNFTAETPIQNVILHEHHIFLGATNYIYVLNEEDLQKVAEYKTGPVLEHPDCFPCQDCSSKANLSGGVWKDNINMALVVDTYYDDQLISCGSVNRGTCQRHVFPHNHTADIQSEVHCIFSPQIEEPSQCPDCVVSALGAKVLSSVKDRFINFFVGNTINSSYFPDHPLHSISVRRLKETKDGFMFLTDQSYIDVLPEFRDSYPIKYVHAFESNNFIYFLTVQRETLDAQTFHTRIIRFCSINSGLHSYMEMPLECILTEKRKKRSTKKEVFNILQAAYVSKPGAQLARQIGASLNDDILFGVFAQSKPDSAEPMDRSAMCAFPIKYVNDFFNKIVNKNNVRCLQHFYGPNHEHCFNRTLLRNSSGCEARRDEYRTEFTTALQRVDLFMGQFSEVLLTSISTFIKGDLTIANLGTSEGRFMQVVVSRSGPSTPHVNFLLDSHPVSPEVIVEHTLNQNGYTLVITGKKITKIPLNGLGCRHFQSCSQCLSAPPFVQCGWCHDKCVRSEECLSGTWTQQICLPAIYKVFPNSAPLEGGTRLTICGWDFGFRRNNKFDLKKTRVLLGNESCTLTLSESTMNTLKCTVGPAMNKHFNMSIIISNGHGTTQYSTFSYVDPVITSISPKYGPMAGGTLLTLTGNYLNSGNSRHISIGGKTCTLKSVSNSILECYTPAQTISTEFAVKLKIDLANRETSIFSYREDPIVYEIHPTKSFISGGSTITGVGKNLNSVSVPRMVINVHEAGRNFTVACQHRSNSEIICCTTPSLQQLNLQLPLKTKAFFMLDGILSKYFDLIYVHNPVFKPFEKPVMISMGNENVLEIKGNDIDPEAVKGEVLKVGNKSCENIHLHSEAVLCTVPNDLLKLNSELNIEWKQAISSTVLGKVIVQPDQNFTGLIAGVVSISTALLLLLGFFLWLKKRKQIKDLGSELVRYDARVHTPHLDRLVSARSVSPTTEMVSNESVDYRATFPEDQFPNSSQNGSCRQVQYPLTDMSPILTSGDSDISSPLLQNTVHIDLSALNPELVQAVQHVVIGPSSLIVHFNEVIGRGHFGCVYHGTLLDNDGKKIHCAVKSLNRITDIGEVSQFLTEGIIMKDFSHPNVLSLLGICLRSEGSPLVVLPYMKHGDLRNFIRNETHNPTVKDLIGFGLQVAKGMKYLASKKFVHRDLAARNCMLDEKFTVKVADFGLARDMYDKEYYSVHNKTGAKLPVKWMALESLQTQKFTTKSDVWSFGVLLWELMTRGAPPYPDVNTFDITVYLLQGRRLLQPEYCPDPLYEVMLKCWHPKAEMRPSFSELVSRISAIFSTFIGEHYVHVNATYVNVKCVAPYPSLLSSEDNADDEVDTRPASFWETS

MET [3] = molecular target: T1, MET; experiment: Test A: HTRF MET assay in 96-well format; format: biochemical; set-up: The His-Tev-MET (956-1390) recombinant DNA in pFastBac (Invitrogen) is transfected into insect cells; His tag (N, cleaved yes); TEV cleavage site (N); made in house; host or cells: SF21 insect cells (baculovirus, pFastBac); details: MET 5 nM, 10 μM ATP
Method: I) Expression and Purification of MET, Cytoplasmic Domain
The His-Tev-MET (956-1390) recombinant DNA in pFastBac (Invitrogen) is transfected into insect cells, and after several viral amplification steps, the final baculovirus stock is tested for the expression of the protein of interest.
After infection for 72 h at 27° C. with the recombinant virus, the SF21 cell cultures are harvested by centrifugation and the cell pellets are stored at −80° C.
The cell pellets are resuspended in lysis buffer (buffer A [50 mM HEPES, pH 7.5, 250 mM NaCl, 10% glycerol, 1 mM TECP]; +cocktail of protease inhibitors, Roche Diagnostics, without EDTA, ref 1873580), stirred at 4° C. until the mixture is homogeneous and then lyzed mechanically using a “Dounce” type apparatus.
After centrifugation, the lysis supernatant is incubated for 2 h at 4° C. with nickel chelate resin (His-Trap 6 Fast Flow™, GE HealthCare). After washing with 20 volumes of buffer A, the suspension is packed into a column, and the proteins are eluted with a gradient of buffer B ([…]+290 mM imidazole).
The fractions containing the protein of interest for the purpose of electrophoretic analysis (SDS PAGE) are combined, concentrated by ultrafiltration (10 kDa cut-off) and injected onto an exclusion chromatography column (Superdex™ 200, GE HealthCare) equilibrated in buffer A.
After enzymatic cleavage of the histidine tag, the protein is reinjected onto a new IMAC nickel chelate chromatography column (His-Trap 6 Fast Flow™, GE HealthCare) equilibrated in buffer A. The fractions eluted with a gradient of buffer B and containing the protein of interest after electrophoresis (SDS PAGE) are finally combined and conserved at −80° C.
For the production of autophosphorylated protein, the previous fractions are incubated for 1 h at ambient temperature after the addition of 2 mM ATP, 2 mM MgCl2, and 4 mM Na3VO4. After the reaction has been stopped with 5 mM of EDTA, the reaction mixture is injected onto a HiPrep desalifying column (GE HealthCare) preequilibrated in buffer A+4 mM Na3VO4, and the fractions containing the protein of interest (SDS PAGE analysis) are combined and stored at −80° C. The degree of phosphorylation is verified by mass spectrometry (LC-MS) and by peptide mapping.
• A) Test A: HTRF MET assay in 96-well format
MET at a final concentration of 5 nM is incubated in a final volume of 50 μl of enzymatic reaction in the presence of the test molecule (for a final concentration range of from 0.17 nM to 10 μM, 3% DMSO final concentration) in 10 mM MOPS buffer, pH 7.4, 1 mM DTT, 0.01% Tween 20. The reaction is initiated with the substrate solution to obtain final concentrations of 1 μg/ml poly-(GAT), 10 μM ATP and 5 mM MgCl2. After incubation for 10 min at ambient temperature, the reaction is stopped with a 30 μl mix so as to obtain a final solution of 50 mM Hepes pH 7.5, 500 mM potassium fluoride, 0.1% BSA and 133 mM EDTA in the presence of 80 ng of streptavidin 61SAXLB Cis-Bio Int. and 18 ng of anti-phosphotyrosine Mab PT66-Europium Cryptate per well. After incubation for 2 hours at ambient temperature, the reading is taken at 2 wavelengths, 620 nm and 665 nm, on a reader for the TRACE/HTRF technique and the % inhibition is calculated from the 665/620 ratios.
Target sequence in this assay (P08581 956-1390): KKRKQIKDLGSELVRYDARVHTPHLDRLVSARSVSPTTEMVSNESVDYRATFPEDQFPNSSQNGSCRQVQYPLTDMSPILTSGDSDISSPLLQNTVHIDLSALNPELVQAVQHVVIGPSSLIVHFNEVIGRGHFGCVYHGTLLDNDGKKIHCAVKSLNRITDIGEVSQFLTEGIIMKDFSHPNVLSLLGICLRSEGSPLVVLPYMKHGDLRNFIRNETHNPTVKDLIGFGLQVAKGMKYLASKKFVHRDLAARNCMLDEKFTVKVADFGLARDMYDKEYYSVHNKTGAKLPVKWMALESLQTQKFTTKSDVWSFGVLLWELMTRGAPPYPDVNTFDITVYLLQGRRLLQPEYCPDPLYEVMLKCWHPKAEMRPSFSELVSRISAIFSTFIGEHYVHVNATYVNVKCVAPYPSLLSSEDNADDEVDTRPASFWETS

| IC50 [1] [nM] | IC50 (MET [2]) [nM] | IC50 (MET [3]) [nM] | Compound |
| --- | --- | --- | --- |
| < 1000 | < 100 | < 100 | COC(=O)Nc1nc2ccc(Sc3nnc4ccc(-c5ccc(F)cc5)nn34)cc2s1 [Example 1, Methyl (6-{[6-(4-fluorophenyl)[1,2,4]triazolo[4,3-b]pyridazin-3-yl]sulphanyl}-1,3-benzothiazol-2-yl)carbamate] |
| < 1000 | < 100 | < 100 | Nc1nc2ccc(Sc3nnc4ccc(-c5ccc(F)cc5)nn34)cc2s1 [Example 3, 6-{[6-(4-Fluorophenyl)[1,2,4]triazolo[4,3-b]pyridazin-3-yl]sulphanyl}-1,3-benzothiazol-2-amine] |
| < 1000 | 100 to 500 | < 100 | Nc1nc2ccc(Sc3nnc4ccc(-c5ccc(F)cc5)nn34)cc2[nH]1 [Example 7, 6-{[6-(4-Fluorophenyl)[1,2,4]triazolo[4,3-b]pyridazin-3-yl]sulphanyl}-1H-benzimidazol-2-amine] |
| < 1000 | < 100 | < 100 | O=C(NCCN1CCOCC1)Nc1nc2ccc(Sc3nnc4ccc(-c5ccc(F)cc5)nn34)cc2s1 [Example 9, 1-(6-{[6-(4-Fluorophenyl)[1,2,4]triazolo[4,3-b]pyridazin-3-yl]sulphanyl}-1,3-benzothiazol-2-yl)-3-(2-morpholin-4-ylethyl)urea] |
| < 1000 | < 100 | < 100 | C[C@@H]1CN(CCNC(=O)Nc2nc3ccc(Sc4nnc5ccc(-c6ccc(F)cc6)nn45)cc3s2)C[C@H](C)O1 [Example 11, 1-{2-[(2R,6S)-2,6-dimethylmorpholin-4-yl]ethyl}-3-(6-{[6-(4-fluorophenyl)-[1,2,4]triazolo[4,3-b]pyridazin-3-yl]sulphanyl}-1,3-benzothiazol-2-yl)urea] |

More lines, now with the values behind:

| Compound | IC50 [1] [nM] | IC50 (MET [2]) [nM] | IC50 (MET [3]) [nM] |
| --- | --- | --- | --- |
| CC(C)(C)OC(=O)Nc1nc2ccc(Sc3nnc4ccc(-c5ccc(F)cc5)nn34)cc2s1 [Example 2, 1,1-Dimethylethyl (6-{[6-(4-fluorophenyl)[1,2,4]triazolo[4,3-b]pyridazin-3-yl]sulphanyl}-1,3-benzothiazol-2-yl)carbamate] | < 1000 | 100 to 500 | < 100 |
| COC(=O)Nc1nc2ccc(Sc3nnc4ccc(-c5ccc(F)cc5)nn34)cc2[nH]1 [Example 4, Methyl (6-{[6-(4-fluorophenyl)[1,2,4]triazolo[4,3-b]pyridazin-3-yl]sulphanyl}-1H-benzimidazol-2-yl)carbamate] | < 1000 | < 100 | < 100 |
| COC(=O)Nc1nc2ccc(Sc3nnc4n3N=C(c3ccc(F)cc3)CC4)cc2[nH]1 [Example 5, Methyl (6-{[6-(4-fluorophenyl)-7,8-dihydro[1,2,4]triazolo[4,3-b]pyridazin-3-yl]sulphanyl}-1H-benzimidazol-2-yl)carbamate] | < 1000 | 100 to 500 | < 100 |
| O=C(NCCN1CCOCC1)Nc1nc2ccc(Sc3nnc4ccc(-c5ccc(F)cc5)nn34)cc2[nH]1 [Example 6, 1-(6-{[6-(4-Fluorophenyl)[1,2,4]triazolo[4,3-b]pyridazin-3-yl]sulphanyl}-1H-benzimidazol-2-yl)-3-(2-morpholin-4-ylethyl)urea] | < 1000 | < 100 | < 100 |
| Nc1nc2ccc(Sc3ccc(C4=Nn5c(nnc5Sc5ccc6nc(N)sc6c5)CC4)cc3)cc2s1 [Example 8, 6-[(4-{3-[(2-amino-1,3-benzothiazol-6-yl)sulphanyl]-7,8-dihydro[1,2,4]triazolo-[4,3-b]pyridazin-6-yl}phenyl)sulphanyl]-1,3-benzothiazol-2-amine] | < 10000 | > 500 | < 100 |
| O=C(NCCN1CCOCC1)Nc1nc2ccc(Sc3nnc4cccnn34)cc2s1 [Example 10, 1-(2-Morpholin-4-ylethyl)-3-[6-([1,2,4]triazolo[4,3-b]pyridazin-3-ylsulphanyl)-1,3-benzothiazol-2-yl]urea] | < 1000 | < 100 | < 100 |
